According to patent publication US7691901B2, “Carotenoid analogs or derivatives for the inhibition and amelioration of inflammation” (Cardax Pharmaceuticals Inc., priority 2004, dated 2010):

Test system: lipid peroxidation products
Assay: Thioglycollate/Zymosan-induced peritonitis model: lipid oxidation products in peritoneal lavage by electrospray ionization tandem mass spectrometry
Type: in vivo, mice
Protocol: Thioglycollate/Zymosan—Induced Peritonitis Model: Wild-type mice were administered either 500 mg/kg body weight of disodium disuccinate astaxanthin (ddAst/Cardax™) in an oil emulsion vehicle, or normal saline (NS) as a negative control, by oral gavage at 24 hours intervals beginning 7 days prior to the induction of peritonitis. Peritonitis was induced experimentally as follows: mice were injected intraperitoneally with 1 ml of 4% by weight thioglycollate (Tg) broth, to induce the recruitment of proinflammatory cells to the peritoneum. Either 16 hours or 72 hours after recruitment, approximately half of the mice were injected intraperitoneally with 250 mg/kg body weight of zymosan (Z) for a further 4 hours. The mice not receiving zymosan underwent no further treatment. Peritoneal lavage was performed in control animals or animals treated with (ddAst) 16 hours post Tg injection, or 20 h following the combination of both Tg injection (16 hours) followed by Z injection (4 hours), as indicated (Tg/Z). Peritoneal lavages were performed with phosphate-buffered saline containing antioxidant (0.1 mM butylated hydroxytoluene (BHT)) and 2 mM of the metal chelator diethylenetriamine pentaacetic acid (DTPA) according to established practices in the art. The lavage suspensions were transferred to screw-capped tubes under an argon atmosphere, and immediately centrifuged at 1000 rpm in a table top microcentrifuge for 10 min at 4° C. to remove whole cells and debris. All analyses of lipid peroxidation products was performed on cell-free lavage supernatants. Cell pellets were resuspended in phosphate-buffered saline containing 0.1 mM BHT and 0.1 mM DTPA, and differential cell counts (macrophages, monocytes, eosinophils, lymphocytes, neutrophils, and erythrocytes) were performed on cytospun preparations of isolated cells according to established procedures in the art.
Electrospray ionization tandem mass spectrometry was used to simultaneously quantify individual molecular species of HETEs, HPETEs, the prostaglandin PGF2α, F2-isoprostanoids, hydroxy- and hydroperoxy-octadecadienoic acids (H(P)ODEs), and their precursors, arachidonic acid (AA) and linoleic acid (LA). Additionally, the molar ratios of o-tyrosine (oY/F). were measured.

[1] = 72 Hour Thioglycollate/4 Hour Zymosan, 500 mg/kg oral gavage, P-VALUE 0.772 NP
[2] = 72 Hour Thioglycollate/4 Hour Zymosan, 500 mg/kg oral gavage, P-VALUE 0.862 NP
[3] = 72 Hour Thioglycollate/4 Hour Zymosan
[4] = 72 Hour Thioglycollate, 500 mg/kg oral gavage, P-VALUE 0.117
[5] = 72 Hour Thioglycollate, 500 mg/kg oral gavage, P-VALUE 0.275
[6] = 72 Hour Thioglycollate, 500 mg/kg oral gavage, P-VALUE 0.325 NP
[7] = 72 Hour Thioglycollate, 500 mg/kg oral gavage, P-VALUE 0.349
[8] = 72 Hour Thioglycollate, 500 mg/kg oral gavage, P-VALUE 0.393
[9] = 72 Hour Thioglycollate, 500 mg/kg oral gavage, P-VALUE 0.512
[10] = 72 Hour Thioglycollate, 500 mg/kg oral gavage, P-VALUE 0.524 NP
[11] = 72 Hour Thioglycollate, 500 mg/kg oral gavage, P-VALUE 0.542
[12] = 72 Hour Thioglycollate, 500 mg/kg oral gavage, P-VALUE 0.603 NP
[13] = 72 Hour Thioglycollate, 500 mg/kg oral gavage, P-VALUE 0.726
[14] = 72 Hour Thioglycollate, 500 mg/kg oral gavage, P-VALUE 0.741
[15] = 72 Hour Thioglycollate, 500 mg/kg oral gavage, P-VALUE 0.793
[16] = 72 Hour Thioglycollate, 500 mg/kg oral gavage, P-VALUE 0.862 NP
[17] = 72 Hour Thioglycollate, 500 mg/kg oral gavage, P-VALUE 0.968
[18] = 16 hours Tg/4 hour Z, 500 mg/kg oral gavage
[19] = 16 hours Tg, 500 mg/kg oral gavage
[20] = 72 hours Tg/4 hour Z, 500 mg/kg oral gavage
[21] = Baseline, 500 mg/kg oral gavage, P-VALUE 0.081 NP
[22] = Baseline, 500 mg/kg oral gavage, P-VALUE 0.158 NP
[23] = Baseline, 500 mg/kg oral gavage, P-VALUE 0.271
[24] = Baseline, 500 mg/kg oral gavage, P-VALUE 0.290
[25] = Baseline, 500 mg/kg oral gavage, P-VALUE 0.298 NP
[26] = Baseline, 500 mg/kg oral gavage, P-VALUE 0.302
[27] = Baseline, 500 mg/kg oral gavage, P-VALUE 0.391
[28] = Baseline, 500 mg/kg oral gavage, P-VALUE 0.418
[29] = Baseline, 500 mg/kg oral gavage, P-VALUE 0.471 NP
[30] = Baseline, 500 mg/kg oral gavage, P-VALUE 0.810 NP
[31] = Baseline, 500 mg/kg oral gavage, P-VALUE 0.843
[32] = Baseline, 500 mg/kg oral gavage, P-VALUE 0.920
[33] = Baseline, 500 mg/kg oral gavage, P-VALUE 1.000 NP

## CC1=C(/C=C/C(C)=C/C=C/C(C)=C/C=C/C=C(C)/C=C/C=C(C)/C=C/C2=C(C)C(=O)C(OC(=O)CCC(=O)O)CC2(C)C)C(C)(C)CC(OC(=O)CCC(=O)O)C1=O (stereo not shown) [Cardax, disodium disuccinate astaxanthin]
[1]
  9-HODE MEAN: 4.747 pmol
  9-HODE MEDIAN: 3.683 pmol
[2]
  11-HETE MEAN: 0.837 pmol
  11-HETE MEDIAN: 0.703 pmol
[3]
  5-oxo-ETE (pmol), MEAN: 0.148 pmol
  5-oxo-ETE (ratio), MEAN: 0.063 ratio
  8-iso-F2a (pmol), MEAN: 0.057 pmol
  8-iso-F2a/AA (ratio), MEAN: 0.017 ratio
  5-oxo-ETE (pmol), MEDIAN: 0.116 pmol
  5-oxo-ETE (ratio), MEDIAN: 0.048 ratio
  8-iso-F2a (pmol), MEDIAN: 0.037 pmol
  8-iso-F2a/AA (ratio), MEDIAN: 0.011 ratio
[4]
  9-HETE MEAN: 0.274 pmol
  9-HETE MEDIAN: 0.299 pmol
[5]
  9-HODE/LA (ratio) MEAN: 0.180
  9-HODE/LA (ratio) MEDIAN: 0.109
[6]
  5-HETE MEAN: 0.129 pmol
  5-HETE MEDIAN: 0.082 pmol
[7]
  9-HODE MEAN: 1.831 pmol
  9-HODE MEDIAN: 1.585 pmol
[8]
  13-HODE MEAN: 5.552 pmol
  13-HODE MEDIAN: 5.520 pmol
[9]
  11-HETE/AA (ratio) MEAN: 0.151
  11-HETE/AA (ratio) MEDIAN: 0.132
[10]
  Arachidonic Acid MEAN: 836.27 pmol
  Arachidonic Acid MEDIAN: 758.43 pmol
[11]
  PGF2a/AA (ratio) MEAN: 0.030
  PGF2a/AA (ratio) MEDIAN: 0.033
[12]
  Linoleic Acid MEAN: 14242 pmol
  Linoleic Acid MEDIAN: 10076 pmol
[13]
  Prostaglandin F2α (PGF2α) MEAN: 0.021 pmol
  Prostaglandin F2α (PGF2α) MEDIAN: 0.018 pmol
[14]
  11-HETE MEAN: 0.112 pmol
  11-HETE MEDIAN: 0.100 pmol
[15]
  5-HETE/AA (ratio) MEAN: 0.170
  5-HETE/AA (ratio) MEDIAN: 0.082
[16]
  9-HETE/AA (ratio) MEAN: 0.348
  9-HETE/AA (ratio) MEDIAN: 0.241
[17]
  13-HODE/AA (ratio) MEAN: 0.504
  13-HODE/AA (ratio) MEDIAN: 0.363
72 Hour Thioglycollate
  5-oxo-ETE (pmol), MEAN: 0.026 pmol
  5-oxo-ETE (ratio), MEAN: 0.021 ratio
  8-iso-F2a (pmol), MEAN: 0.010 pmol
  8-iso-F2a/AA (ratio), MEAN: 0.016 ratio
  5-oxo-ETE (pmol), MEDIAN: 0.000 pmol
  5-oxo-ETE (ratio), MEDIAN: 0.000 ratio
  8-iso-F2a (pmol), MEDIAN: 0.000 pmol
  8-iso-F2a/AA (ratio), MEDIAN: 0.000 ratio
72 Tg/4 hour Z, 500 mg/kg oral gavage
  5-oxo-EET (pmol) compared to NS: significant decrease
[18]
  8-iso-F2α (pmol) compared to NS: significant decrease
  8-iso-F2α/AA ratio compared to NS: significant decrease
[19]
  AA (pmol) compared to NS: significantly higher
  LA (pmol) compared to NS: significantly higher
[20]
  5-HETE/AA ratio compared to NS: significant decrease
  5-oxo-EET (ratio) compared to NS: significant decrease
  9-HETE/AA ratio compared to NS: significant decrease
  9-HODE/LA (ratio) compared to NS: significant decrease
  11-HETE/AA ratio compared to NS: significant decrease
  AA (pmol) compared to NS: significantly higher
  LA (pmol) compared to NS: significantly higher
  PGF2α/AA ratio compared to NS: significant decrease
[21]
  PGF2a/AA (ratio) MEAN: 0.033
  PGF2a/AA (ratio) MEDIAN: 0.000
[22]
  Prostaglandin F2α (PGF2α) MEAN: 0.036 pmol
  Prostaglandin F2α (PGF2α) MEDIAN: 0.000 pmol
[23]
  13-HODE MEAN: 26.618 pmol
  13-HODE MEDIAN: 23.554 pmol
[24]
  11-HETE/AA (ratio) MEAN: 0.219
  11-HETE/AA (ratio) MEDIAN: 0.218
[25]
  9-HODE/LA (ratio) MEAN: 0.212
  9-HODE/LA (ratio) MEDIAN: 0.168
[26]
  5-HETE/AA (ratio) MEAN: 0.129
  5-HETE/AA (ratio) MEDIAN: 0.145
[27]
  13-HODE/AA (ratio) MEAN: 2.976
  13-HODE/AA (ratio) MEDIAN: 2.848
[28]
  9-HETE/AA (ratio) MEAN: 0.879
  9-HETE/AA (ratio) MEDIAN: 0.887
[29]
  5-HETE MEAN: 0.096 pmol
  5-HETE MEDIAN: 0.047 pmol
  11-HETE MEAN: 0.121 pmol
  11-HETE MEDIAN: 0.073 pmol
[30]
  9-HETE MEAN: 0.510 pmol
  9-HETE MEDIAN: 0.272 pmol
[31]
  Linoleic Acid MEAN: 8239.5 pmol
  Linoleic Acid MEDIAN: 5875.6 pmol
[32]
  9-HODE MEAN: 1.791 pmol
  9-HODE MEDIAN: 1.579 pmol
[33]
  Arachidonic Acid MEAN: 587.46 pmol
  Arachidonic Acid MEDIAN: 323.65 pmol
Baseline
  5-oxo-ETE (pmol), MEAN: 0.020 pmol
  5-oxo-ETE (ratio), MEAN: 0.033 ratio
  8-iso-F2a (pmol), MEAN: 0.156 pmol
  8-iso-F2a/AA (ratio), MEAN: 0.307 ratio
  5-oxo-ETE (pmol), MEDIAN: 0.000 pmol
  5-oxo-ETE (ratio), MEDIAN: 0.000 ratio
  8-iso-F2a (pmol), MEDIAN: 0.175 pmol
  8-iso-F2a/AA (ratio), MEDIAN: 0.266 ratio
